Experimental data taken from US20240173425A1, “HUMAN CD33 ANTIBODIES AND GLUCOCORTICOID CONJUGATES” (Eli Lilly and Company, priority 2022, published 2024).
Read-outs that look alike come from different tables or passages of the source. Marks after values point to notes of the source that are not given here.

Experiments:
FKBP5 gene expression = assay: GC regulated gene expression in tissues of the contact hypersensitivity model; format: in vivo, mouse; conditions: 3 mg/kg
Description: (§1) Briefly, huNOG-EXL mice were engrafted at 6 weeks of age with human CD34+ hematopoietic stem cells isolated from human cord blood. 20-24 weeks after stem cell administration the mice were assessed for human CD45 engraftment (>25% in blood) and subjected to an oxazolone-induced contact hypersensitivity protocol. […] 24 hours (Day 1) post administration, the mice were anesthetized with 5% isoflurane, their abdomens shaved, and sensitized with 100 μL of 3% oxazolone in ethanol (applied to the shaved area). Mice were dosed again on Day 4, 11, and 16 as above, and challenged with 2% oxazolone in ethanol on both ears (10 μL/side/ear) 48 hours post each dose (Day 6—Challenge 1, Day 13—Challenge 2, and Day 18—Challenge 3). For the GC1 alone group, mice were dosed with 3 mg/kg SC 1 hour prior to sensitization and prior to each challenge. Upon final challenge, mice were euthanized, and ear tissue and the gastrocnemius was collected for analysis of target selective and non-target selective tissue expression of GC regulated genes.

[1] = test system: human plasmacytoid dendritic cells (pDCs); assay: Plasmacytoid dendritic cell differentiation assay; format: cell-based; conditions: human PBMCs, IL-3 supplemented media, CpG stimulation
Description: The differentiation of pDC was measured by flow cytometry. The functional effects of the pDC were measured by type I IFN (IFNα) production.

human PBMCs = assay: Proinflammatory cytokine modulation in LPS-stimulated PBMCs; format: cell-based; conditions: PBMC, 200 nM, LPS 100 pg/mL, 24 hours
Description: PBMCs were used to mimic in vivo conditions. […] The cells were then stimulated with LPS (Sigma cat. L2880) at 100 pg/mL in a 37° C. incubator for 24 hours. Culture supernatants were collected to measure the indicated cytokines (Proinflammatory Panel II (human) 4-Plex kits, MSD, K15053D-2).

[2] = test system: oxazolone-induced skin inflammation; assay: Oxazolone-induced contact hypersensitivity in humanized mouse model (HuNOG-EXL); format: in vivo; conditions: Challenge 3, 3 mg/kg SC 1 hour prior to sensitization and each challenge
Description: as §1

Compound: Cc1ccc(OCc2cccc(N)c2)c(F)c1[C@H]1O[C@@H]2C[C@H]3[C@@H]4CCC5=CC(=O)C=C[C@]5(C)[C@H]4[C@@H](O)C[C@]3(C)[C@]2(C(=O)CO)O1 (single isomer, unassigned) [GC1]
- Fold increase in FKBP5 gene expression compared to Isotype, Gastrocnemius, Mean (FKBP5 gene expression; non-targeted tissue (Gastrocnemius)): 3.958
- Fold increase in FKBP5 gene expression compared to Isotype, Ear, Mean (FKBP5 gene expression; targeted tissue (Ear)): 4.505
- % Inhibition of human IFNα secretion [1]: 97.18 ± 2.95%
- % Inhibition of pDC cell differentiation ([1]; flow cytometry): 95.50 ± 8.32%
- inhibition at 0.2 µM (human PBMCs; read-out: % Inhibition of human IL-6 secretion at 200 nM): 83.9 ± 2.81%
- inhibition at 0.2 µM (human PBMCs; read-out: % Inhibition of human TNFa secretion at 200 nM): 85.1 ± 3.28%
- Δ Ear thickness, Mean [2]: 0.018*^ mm
